The target in experiment [1] is T1, CRP (CRP-containing human plasma) (Homo sapiens, UniProt P02741).
T1 construct: from tissue; host or cells: human plasma
T1 sequence (P02741 19-224): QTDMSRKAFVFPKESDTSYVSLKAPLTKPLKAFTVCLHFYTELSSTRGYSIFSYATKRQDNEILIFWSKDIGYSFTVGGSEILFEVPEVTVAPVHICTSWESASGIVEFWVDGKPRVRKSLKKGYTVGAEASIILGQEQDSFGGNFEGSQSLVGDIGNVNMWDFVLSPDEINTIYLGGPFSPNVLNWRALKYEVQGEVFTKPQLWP
Description: Inhibition of CRP binding to a plate-coated BSA-APPC construct. The procedure: A microtiter plate was coated with 100 μg/mL of a BSA-APPC construct, which binds CRP in a calcium-dependent manner, for 1 hour at room temperature (coating buffer: 0.1 M NaHCO3). Subsequently, 4 washes with 400 μl binding buffer (0.1 M Tris, 0.2 M NaCl, 2 mM CaCl2)) and non-specific binding sites were saturated with block solution (1% casein, 0.9% NaCl, 0.001% thiomersal) for 1 h at room temperature or overnight at 2-8° C.
Afterwards, the block solution was removed and the samples were applied in binding buffer. CRP-containing human plasma was diluted to 50 ng/mL CRP and applied either pure or together with different concentrations (0.25-3 mM) of the various inhibitors 1, 4, 5 and APPC and incubated for 1.5 h at room temperature with horizontal shaking (600 rpm). The plate was then washed again as described above.
After washing, 100 μL of a POD-labelled rabbit anti-huCRP antibody (final concentration: 25 ng/mL) in calcium-containing block solution (final concentration of calcium 4 mM) was added and the plate was incubated for 1.5 h at room temperature with shaking.
The plate was then washed again as described above. Development was carried out by adding 100 μl substrate buffer (0.2 M citric acid, 0.01% H2O2, 100 μg/mL TMB). The colour reaction was stopped by adding 50 μL of 1 M H2SO4 and the absorbance was measured at 450 nm. The absorbance at 655 nm (turbidity) was subtracted as background.
For the determination of inhibition, the OD of the CRP with inhibitor was normalised to the OD of the CRP without inhibitor:
The relative OD was then plotted against the concentration of stabilised APPC constructs in the batch. Only APPC was used as a comparative sample. It is clear that constructs 1 and 5 or 3 and APPC show an inhibition curve that is identical within the measurement uncertainty. […] For APPC/3, the corresponding concentration is 0.7±0.06 mmol/L. Thus, all stabilised APPC constructs show a good inhibition capacity.

Experiment [2] has as its target T2, huCRP (Homo sapiens, UniProt P02741).
T2 sequence (P02741 19-224): T1 sequence (P02741 19-224)
The experiment in a line: ELISA: binding of CRP to solid phase-fixed biotin-D-Glu(APPC)-NH2 on streptavidin-coated microtiter plates. The settings on record: for Optical Density (OD): mean of duplicates. The procedure:
Streptavidin-coated microtiter plates were incubated with a solution containing biotin-D-Glu(APPC)—NH2) (2) and then washed with phosphate buffer (PBS). The reactive parts of the MTP surface were then blocked with BSA solution (a standard procedure). CRP was then added in a concentration range of 31-500 ng/ml and incubated (see table below). After renewed washing, the bound CRP was detected using a murine monoclonal antibody (DH7) against CRP and a secondary, POD-conjugated anti-mouse antibody, followed by substrate development

In experiment [3] the target is T2, huCRP. Description: ELISA: binding of free CRP and free biotin-D-Glu(APPC)-NH2 in solution, complex captured on streptavidin plates. The note with it: for Optical Density (OD): mean of duplicates. The procedure:
CRP and compound 2 were incubated in a reaction vessel for 1 h at room temperature for complexation. The final concentrations were 10 μg/ml CRP (MW approx. 125 KD) and 2 μg/ml compound 2 (MW approx. 1 KD). The solution was then added to streptavidin-coated microtiter plates (MTP) at the dilution levels indicated in Tab. 2 at […] each and incubated with a block solution (Roche) for 30 min at room temperature. The MTPs were then washed 3 times. Using the in house monoclonal antibody “DH7” specific for huCRP and a peroxidase-conjugated secondary antibody (anti-mouse) as well as the substrate TMB, the huCRP previously bound to compound 2 was detected.

Where [4] appears, read: 50 ng/mL CRP from human plasma, inhibitor 0.25-3 mM, BSA-APPC coated plate, read-out: 50% inhibitor concentration (IC50).

Like-named read-outs stand apart in the source and are kept apart here. Where a SMILES comes first, the peptide text is derived from it. The star is where a group is joined. X1 = C[N+](C)(C)CCOP(=O)([O-])Oc1ccc(N*)cc1

The values that follow come from US20240400589A1, “4-AMINOPHENYLPHOSPHO[…] FOR BLOCKING C-REACTIVE PROTEIN” (Pentracor GmbH, priority 2021, published 2024).

With `C[N+](C)(C)CCOP(=O)([O-])Oc1ccc(N)cc1` [APPC, 4-aminophenylphosphocholine, reference compound], the IC50 in experiment [1] (setting [4]) is 700 ± 60 µM.
On the same count and under the same terms, to `C[N+](C)(C)CCOP(=O)([O-])Oc1ccc(NC(=O)CC[C@@H](N)C(N)=O)cc1` [Compound 1, D-Glu(APPC)—NH2] belongs 1600 ± 100 µM.
Turning to `C[N+](C)(C)CCOP(=O)([O-])Oc1ccc(NC(=O)CC[C@@H](NC(=O)CCCC[C@@H]2SC[C@@H]3NC(=O)N[C@@H]32)C(N)=O)cc1` [Compound 2, Biotin-D-Glu(APPC)—NH2], the “Optical Density (OD)” value in experiment [2] (CRP 31 ng/ml) is 1.061; in experiment [2] (CRP 62.5 ng/ml) it was 1.512; in experiment [2] (CRP 125 ng/ml), 2.081; in experiment [2] (CRP 250 ng/ml), 2.627; in experiment [2] (CRP 500 ng/ml) it was 3.242; in experiment [3] (complex dilution 1:20, 10 μg/ml CRP + 2 μg/ml compound 2), 2.685. Besides, the “Optical Density (OD)” value in experiment [3] (complex dilution 1:40) is recorded as 2.219; in experiment [3] (complex dilution 1:80), 1.801; in experiment [3] (complex dilution 1:160) it was 1.242; in experiment [3] (complex dilution 1:320), 0.875; in experiment [3] (complex dilution 1:640), 0.548; in experiment [3] (complex dilution 1:1280), 0.381. Moreover, the “Binding to CRP (CRP binding curve, FIG. 1)” value in experiment [2] (solid phase-fixed compound) is reported as “binds to CRP”. Besides, the “Binding of CRP in solution (dilution series, FIG. 2)” value in experiment [3] (free CRP and free compound, 1 h room temperature) was “binds CRP in solution”.
In experiment [1], `CC(=O)N1CCC[C@H]1C(=O)N[C@@H](C)C(=O)N[C@@H](CO)C(=O)N[C@@H](CCC(=O)Nc1ccc(OP(=O)([O-])OCC[N+](C)(C)C)cc1)C(=O)N1CCC[C@H]1C(=O)N[C@@H](C)C(=O)N[C@@H](CO)C(N)=O` [Compound 5] (Ac-PASE(X1)PAS-NH2) showed an IC50 of 1600 ± 100 µM.
